The numbers were not newly measured in patent US20160303051A1, “Burst Drug Release Compositions” (Wyeth LLC, priority 2009, published 2016), which cites them from elsewhere.

Take `CC(C)Cc1ccc(C(C)C(=O)O)cc1` (stereo not shown) [Ibuprofen, ibuprofen]: the “solubility (BCS)” value is listed as “low solubility”.
